This is an account of results in ChEMBL document CHEMBL5500388, “Design, synthesis and biological evaluation of 4-(indolin-1-yl)-6-substituted-pyrido[3,2-d]pyrimidine derivatives as Mnk1/2 inhibitors” (Eur J Med Chem, 2024).

Assay [1] has as its system K562. The assay is described as follows: Induction of cell cycle arrest at G0/G1 stage in human K562 cells at 8 uM treated for 24 hrs by PI/RNase staining based flow cytometry (reference value: 38.8 %). The format is functional. Background: A flow cytometer gives signals particle by particle.
Assay [2] concerns MOLM-13. The assay is described as follows: Induction of cell cycle arrest at G0/G1 stage in human MOLM-13 cells at 2 uM treated for 24 hrs by PI/RNase staining based flow cytometry (reference value: 53.98 %). Format: functional.
In assay [3] the test system is MOLM-13. The assay is described as follows: cells. The following applies: Homo sapiens, MOLM-13, 72 h.
Assay [4] deals with K562. The assay is described as follows: Induction of cell cycle arrest at G0/G1 stage in human K562 cells at 16 uM treated for 24 hrs by PI/RNase staining based flow cytometry (reference value: 38.8 %). Format: functional.
Assay [5] deals with MOLM-13. The assay is described as follows: Induction of cell cycle arrest at G0/G1 stage in human MOLM-13 cells at 4 uM treated for 24 hrs by PI/RNase staining based flow cytometry (reference value: 53.98 %). The format is functional.
The subject of the next assay is HL-60. The assay is described as follows: cells. The following applies: Homo sapiens, HL-60, 72 h.
A further assay relates to HCT-116. The assay is described as follows: cells. The following applies: Homo sapiens, HCT-116, 96 h.
Assay [6] deals with MOLM-13. The assay is described as follows: Induction of cell cycle arrest at G0/G1 stage in human MOLM-13 cells at 8 uM treated for 24 hrs by PI/RNase staining based flow cytometry (reference value: 53.98 %). Format: functional.
Assay [7] relates to K562. The assay is described as follows: cells. The following applies: Homo sapiens, K562, 72 h.
Assay [8] has as its system K562. The assay is described as follows: Induction of cell cycle arrest at G0/G1 stage in human K562 cells at 4 uM treated for 24 hrs by PI/RNase staining based flow cytometry (reference value: 38.8 %). The format is functional.

The term GI50 denotes the concentration that inhibits growth by half. Lower therefore signals greater sensitivity of the cells. Turning to `Nc1ncnc2[nH]nc(Nc3ccc(F)cc3)c12`, the Activity in the assay with K562 [1] stood at 52.06%; with MOLM-13 [2], 55.79%; with K562 [4], 58.15%; in the assay on MOLM-13 [5], 59.95%; with MOLM-13 [6], 66.39%; with K562 [8], 48.93%. Besides, the GI50 came out at 10.7 µM in the assay on MOLM-13 [3], 8.42 µM with HL-60, 10.2 µM with HCT-116 and 26.6 µM with K562 [7].
